Laboratory results reported in ChEMBL document CHEMBL1201862, “PubChem BioAssay data set” (2004).
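Five concentrations, 48 hours, 96-well plates. Here, GI50 denotes the concentration required for 50% inhibition of growth.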 Active and inactive are the calls of the source. No stated cut-off is given here; in the data, active = GI50 up to about 1.1 µM and inactive = higher.

What was measured:
Test in all cases: growth of human tumour cells (NCI), 48 h
A549 = test system: A549
NCI-H23 = test system: NCI-H23
OVCAR-4 = test system: OVCAR-4
SNB-75 = test system: SNB-75
LOX IMVI = test system: LOX IMVI
T47D = test system: T47D
PC-3 = test system: PC-3
RPMI-8226 = test system: RPMI-8226
NCI/ADR-RES = test system: NCI/ADR-RES
A498 = test system: A498
SW-620 = test system: SW-620
HCC 2998 = test system: HCC 2998
TK-10 = test system: TK-10
U-251 = test system: U-251
HOP-62 = test system: HOP-62
K562 = test system: K562
NCI-H522 = test system: NCI-H522
BT-549 = test system: BT-549
SR = test system: SR

Measured: GI50

CCCn1c(=O)c2ccccc2[n+]2c(-c3ccc([N+](=O)[O-])cc3)csc12
inactive: A549 47 µM | NCI-H23 31 µM | OVCAR-4 17.9 µM | SNB-75 21.7 µM | LOX IMVI 22.1 µM | T47D 30.6 µM | PC-3 18.1 µM | RPMI-8226 18 µM | NCI/ADR-RES 7.67 µM | A498 25.2 µM | SW-620 43.9 µM | HCC 2998 77.4 µM | TK-10 > 10 µM | U-251 34.4 µM | HOP-62 18.9 µM | K562 20.9 µM | NCI-H522 18 µM | BT-549 33.9 µM

O=C(O)Cc1cccc2c1OC(c1ccccc1)C(Cl)(C(=O)c1ccccc1)C2=O (stereo unspecified)
inactive: A549 29.4 µM | NCI-H23 16.1 µM | SNB-75 19.1 µM | LOX IMVI 14.4 µM | T47D 16.9 µM | PC-3 11.4 µM | SR 20.4 µM | RPMI-8226 17.4 µM | NCI/ADR-RES 22.2 µM | SW-620 9.33 µM | HCC 2998 13.2 µM | TK-10 21.8 µM | U-251 17.2 µM | HOP-62 20.3 µM | K562 5.52 µM | NCI-H522 14.2 µM | BT-549 43 µM

C=CCCCCCCCCCOC1C=CC(O)C(CO)O1 (stereo unspecified)
inactive: A549 42.4 µM | NCI-H23 28.2 µM | OVCAR-4 46.6 µM | SNB-75 51.2 µM | LOX IMVI 31.6 µM | T47D 52.2 µM | PC-3 26.5 µM | RPMI-8226 14.9 µM | NCI/ADR-RES 43.6 µM | A498 99.5 µM | SW-620 43.5 µM | HCC 2998 41.1 µM | TK-10 36.7 µM | U-251 28.6 µM | HOP-62 50.5 µM | K562 20.6 µM | NCI-H522 33.2 µM | BT-549 48.4 µM

O=C(CNC(=O)c1ccccc1)Oc1c(Cl)c(Cl)c(Cl)c(Cl)c1Cl
inactive: A549 29 µM | NCI-H23 > 100 µM | OVCAR-4 45.5 µM | SNB-75 45.5 µM | LOX IMVI 35 µM | T47D 42.6 µM | PC-3 24.7 µM | SR 32.4 µM | RPMI-8226 38.7 µM | NCI/ADR-RES 31 µM | SW-620 21.6 µM | HCC 2998 27.7 µM | TK-10 40.4 µM | U-251 26.7 µM | HOP-62 38.3 µM | K562 28.2 µM | NCI-H522 29.6 µM | BT-549 20.5 µM
